Key:
Type in all cases: in vivo
Details in all cases: 250 g/ha, evaluated after 13 days
[1] = test system: Amaranthus palmeri (AMAPA); experiment: Post-emergence herbicidal glasshouse test
Protocol: (§1) Seeds of a variety of test species are sown in standard soil in pots Amaranthus palmeri (AMAPA), Amaranthus retoflexus (AMARE), Echinochloa crus-galli (ECHCG), Ipomoea hederacea (IPOHE), Setaria faberi (SETFA). After cultivation for one day (pre-emergence) or after 8 days cultivation (post-emergence) under controlled conditions in a glasshouse (at 24/16 °C, day/night; 14 hours light; 65% humidity), the plants are sprayed with an aqueous spray solution derived from the formulation of the technical active ingredient in acetone/water (50:50) solution containing 0.5% Tween 20 (polyoxyethelyene sorbitan monolaurate, CAS RN 9005-64-5). Compounds are applied at 250 g/ha unless otherwise stated. The test plants are then grown in a glasshouse under controlled conditions in a glasshouse (at 24/16 °C, day/night; 14 hours light; 65% humidity) and watered twice daily. After 13 days for pre and post-emergence, the test is evaluated for the percentage damage caused to the plant. The biological activities are shown in the following table on a five-point scale (5=81-100%; 4=61-80%; 3=41-60%; 2=21-40%; 1=0-20%).

[2] = test system: Amaranthus retoflexus (AMARE); experiment: Post-emergence herbicidal glasshouse test
Protocol: as §1

[3] = test system: Echinochloa crus-galli (ECHCG); experiment: Post-emergence herbicidal glasshouse test
Protocol: as §1

[4] = test system: Ipomoea hederacea (IPOHE); experiment: Post-emergence herbicidal glasshouse test
Protocol: as §1

[5] = test system: Setaria faberi (SETFA); experiment: Post-emergence herbicidal glasshouse test
Protocol: as §1

[6] = test system: Amaranthus palmeri (AMAPA); experiment: Pre-emergence herbicidal glasshouse test
Protocol: as §1

[7] = test system: Amaranthus retoflexus (AMARE); experiment: Pre-emergence herbicidal glasshouse test
Protocol: as §1

[8] = test system: Echinochloa crus-galli (ECHCG); experiment: Pre-emergence herbicidal glasshouse test
Protocol: as §1

[9] = test system: Ipomoea hederacea (IPOHE); experiment: Pre-emergence herbicidal glasshouse test
Protocol: as §1

[10] = test system: Setaria faberi (SETFA); experiment: Pre-emergence herbicidal glasshouse test
Protocol: as §1

Compound	percentage damage caused to the plant (five-point scale), AMAPA [1]	percentage damage caused to the plant (five-point scale), AMARE [2]	percentage damage caused to the plant (five-point scale), ECHCG [3]	percentage damage caused to the plant (five-point scale), IPOHE [4]	percentage damage caused to the plant (five-point scale), SETFA [5]	percentage damage caused to the plant (five-point scale), AMAPA [6]	percentage damage caused to the plant (five-point scale), AMARE [7]	percentage damage caused to the plant (five-point scale), ECHCG [8]	percentage damage caused to the plant (five-point scale), IPOHE [9]	percentage damage caused to the plant (five-point scale), SETFA [10]
C=CCCn1nc(C(F)F)cc1Cc1ncc(Cl)cn1 [Compound 1.021]	2 (21-40%)	3 (41-60%)	1 (0-20%)	1 (0-20%)	1 (0-20%)	5 (81-100%)	5 (81-100%)	2 (21-40%)	1 (0-20%)	3 (41-60%)
N#CC1(Cn2nc(C(F)(F)F)cc2Cc2ncc(Cl)cn2)CC1 [Compound 1.022]	4 (61-80%)	4 (61-80%)	1 (0-20%)	4 (61-80%)	1 (0-20%)	4 (61-80%)	5 (81-100%)	3 (41-60%)	5 (81-100%)	4 (61-80%)
CS(=O)(=O)CCn1nc(C(F)F)cc1Cc1ncc(Cl)cn1 [Compound 1.023]	2 (21-40%)	2 (21-40%)	1 (0-20%)	3 (41-60%)	1 (0-20%)	1 (0-20%)	1 (0-20%)	1 (0-20%)	2 (21-40%)	1 (0-20%)
FC(F)c1cc(Cc2ncc(Cl)cn2)n(CCBr)n1 [Compound 1.025]	1 (0-20%)	1 (0-20%)	1 (0-20%)	1 (0-20%)	1 (0-20%)	4 (61-80%)	4 (61-80%)	2 (21-40%)	1 (0-20%)	1 (0-20%)
C=CCn1nc(C(F)F)cc1Cc1ncc(Cl)cn1 [Compound 1.026]	1 (0-20%)	1 (0-20%)	1 (0-20%)	1 (0-20%)	1 (0-20%)	1 (0-20%)	1 (0-20%)	1 (0-20%)	1 (0-20%)	1 (0-20%)
N#CC1(Cn2nc(C(F)F)cc2Cc2ccc(Cl)cc2)CC1 [Compound 1.027]	1 (0-20%)	1 (0-20%)	1 (0-20%)	1 (0-20%)	1 (0-20%)	1 (0-20%)	1 (0-20%)	1 (0-20%)	2 (21-40%)	2 (21-40%)
FC(F)(F)c1cc(Cc2ncc(Cl)cn2)n(C2CCCC2)n1 [Compound 1.028]	2 (21-40%)	4 (61-80%)	2 (21-40%)	3 (41-60%)	2 (21-40%)	5 (81-100%)	5 (81-100%)	2 (21-40%)	1 (0-20%)	5 (81-100%)
CC(C)(C#N)CCCn1nc(C(F)(F)F)cc1Cc1ncc(Cl)cn1 [Compound 1.029]	3 (41-60%)	4 (61-80%)	3 (41-60%)	3 (41-60%)	2 (21-40%)	4 (61-80%)	5 (81-100%)	3 (41-60%)	5 (81-100%)	3 (41-60%)
CCSCCn1nc(C(F)F)cc1Cc1ncc(Cl)cn1 [Compound 1.030]	5 (81-100%)	5 (81-100%)	2 (21-40%)	5 (81-100%)	4 (61-80%)	1 (0-20%)	1 (0-20%)	1 (0-20%)	1 (0-20%)	1 (0-20%)
FC(F)CCn1nc(C(F)(F)Cl)cc1Cc1ncc(Cl)cn1 [Compound 1.031]	4 (61-80%)	4 (61-80%)	3 (41-60%)	4 (61-80%)	4 (61-80%)	5 (81-100%)	5 (81-100%)	5 (81-100%)	5 (81-100%)	5 (81-100%)
FC(F)(Cl)c1cc(Cc2ncc(Cl)cn2)n(CCC2CC2)n1 [Compound 1.032]	5 (81-100%)	5 (81-100%)	4 (61-80%)	4 (61-80%)	5 (81-100%)	5 (81-100%)	5 (81-100%)	5 (81-100%)	5 (81-100%)	5 (81-100%)
C=Cn1nc(C(F)F)cc1Cc1ncc(Cl)cn1 [Compound 1.037]	3 (41-60%)	4 (61-80%)	2 (21-40%)	2 (21-40%)	2 (21-40%)	5 (81-100%)	5 (81-100%)	1 (0-20%)	3 (41-60%)	1 (0-20%)
FC(F)c1cc(Cc2ncc(Cl)cn2)n(CCn2ccc(C(F)(F)F)n2)n1 [Compound 1.038]	1 (0-20%)	1 (0-20%)	1 (0-20%)	1 (0-20%)	1 (0-20%)	2 (21-40%)	1 (0-20%)	2 (21-40%)	1 (0-20%)	2 (21-40%)

— patent US20260365634A1, “HERBICIDAL PYRAZOLE COMPOUNDS” (SYNGENTA CROP PROTECTION AG, priority 2022, published 2026)
